Assay results reported in patent publication US20140005216A1, “Nalmefene for reduction of alcohol consumption in specific target populations” (H. Lundbeck A/S, priority 2012, published 2014).
“Also recorded” adds a separate entry of the source.

Key:
[1] = tested on: patients with alcohol dependence; experiment: Study 12023A: randomised, double blind, placebo controlled 6 month efficacy study, reduction of alcohol consumption; type: in vivo, human; conditions: nalmefene 18 mg as-needed, MMRM
Procedure: (§1) The efficacy of nalmefene on the reduction of alcohol consumption in patients with alcohol dependence (DSM-IV) was evaluated in two efficacy studies (Study 12014A and Study 12023A). Both studies were randomised, double blind, two-parallel group, placebo controlled, and after 6 months of treatment, patients receiving nalmefene were re-randomised to receive either placebo or nalmefene in a 1 month run out period. The efficacy of nalmefene was also evaluated in a randomised, double blind, two parallel group, placebo controlled 1 year safety study (Study 12013A). The studies included 1941 patients, 1144 of whom were treated with nalmefene 18 mg in an as-needed dosing regimen.
(§2) The studies were conducted applying an outpatient setting without preceding detoxification. Higher CIWA withdrawal scores at Screening as well as a history of delirium tremens and seizures would be indicative for the necessity of prior inpatient detoxification. Patients with abuse of substance other than alcohol and subjects with significant depressive or psychotic co-morbidity were excluded.
(§3) The studies included outpatients, aged ≧18 years, with a primary diagnosis of alcohol dependence. A patient was eligible for participation in the study if, in the 4 weeks preceding the Screening Visit (Baseline period), he/she had >6 HDDs, at least a medium DRL (calculated as mean daily alcohol consumption in g/day i.e. >40 g/day for men and >20 g/day for women calculated as mean daily alcohol consumption over the 4 week period preceding the screening visit), and ≦14 consecutive abstinent days. The timeline followback (TLFB) method was used to obtain estimates of the patient's daily drinking.
(§4) The studies were conducted over a 34 week period (12 visits) in total and consisted of four sequential periods: a 2-week screening period, a 24-week double-blind treatment period, a 4-week double-blind placebo-controlled run-out in each of the treatment arms and finally a 4-week safety follow-up. One to two weeks after the Screening Visit the patients were randomised 1:1 to 24 weeks of as-needed, double-blind treatment (Main Treatment Period: MTP) with nalmefene (18 mg) or placebo. The patients who completed 24 weeks of double-blind treatment entered a 4-week, double-blind Run-out Period (ROP). The patients randomised to nalmefene were re-randomised 1:1 to receive nalmefene (18 mg, as-needed) or placebo and the patients randomised to placebo continued on placebo.
(§5) The Timeline Follow-back (TLFB) method was used to collect self-reported drinking data (alcohol consumption).
(§6) At the initial visit, the patients' clinical status, social situation, and alcohol consumption pattern were evaluated (based on patient reporting). After a 1- to 2-week observation period the drinking risk level was re-assessed (i.e. the […] daily alcohol consumption over the 1-2 week assessment period was calculated), and treatment with nalmefene was initiated together with counseling with focus on motivating the patients to adhere to the treatment and to change their drinking behavior. In all the studies, a motivational and adherence enhancing intervention, according to the BRENDA model, was administered to all the patients to support the patients in changing their behavior and to enhance adherence to treatment.
(§7) The patients' alcohol intake (g/day) was estimated based on national definitions of standard units (subsequently converted into grams of alcohol). To define the standard units, a standard drink conversion card was distributed to each patient at the Screening Visit. Each patient was also provided with a calendar that he/she could use to support his/her input to the TLFB, or he/she could use a personal calendar, if preferred. For all the variables derived from the TLFB data, baseline was defined as the month (that is 4 weeks/28 consecutive days) preceding the Screening Visit. The investigational medicinal product (IMP) was taken as-needed. […]

[2] = tested on: patients with alcohol dependence; experiment: Study 12014A: randomised, double blind, placebo controlled 6 month efficacy study, reduction of alcohol consumption; type: in vivo, human; conditions: nalmefene 18 mg as-needed, MMRM
Procedure: as §1, §2, §3, §4, §5, §6, §7

alcohol dependence [3] = conditions: 20 to 80 mg daily oral dosing; Mason et al. 1999; cited from earlier work
[4] = tested on: patients with alcohol dependence; experiment: Study 12013A: randomised, double blind, placebo controlled 1 year safety study, reduction of alcohol consumption; type: in vivo, human; conditions: nalmefene 18 mg as-needed, MMRM
Procedure: as §1, §2, §3, §5, §6
The patients' alcohol intake (g/day) was estimated based on national definitions of standard units (subsequently converted into grams of alcohol). To define the standard units, a standard drink conversion card was distributed to each patient at the Screening Visit. Each patient was also provided with a calendar that he/she could use to support his/her input to the TLFB, or he/she could use a personal calendar, if preferred. For all the variables derived from the TLFB data, baseline was defined as the month (that is 4 weeks/28 consecutive days) preceding the Screening Visit. The investigational medicinal product (IMP) was taken as-needed. Each patient was instructed to take a maximum of one tablet on each day the patient perceived a risk of drinking alcohol, preferably 1 to 2 hours prior to the anticipated time of drinking. If the patient had started drinking alcohol without taking nalmefene, the patient was to take one tablet as soon as possible. The dates when nalmefene was taken/not taken were recorded using the TLFB method. The chosen comparator was placebo
The efficacy of nalmefene was measured using two co-primary endpoints: the change in the monthly number of heavy drinking days (HDDs) and the change in the mean daily total alcohol consumption (TAC) per month (=28 days). A HDD was defined as a day with a consumption ≧60 g alcohol for men and ≧40 g for women. […]

[5] = tested on: patients with alcohol dependence; experiment: Three Lundbeck phase III studies (12014A, 12023A, 12013A) taken together, HDDs and TAC versus placebo; type: in vivo, human; conditions: for Effect on HDDs and TAC compared to placebo, relative to the total population: all three studies
Excerpt: The efficacy of nalmefene in the reduction of alcohol consumption in patients with alcohol dependence (DSM-IV) has been evaluated in two efficacy studies (Study 12014A and Study 12023A) and one safety study (Study 12013A) as described in the examples. All three studies were randomized, double blind, parallel-group and placebo-controlled.
as §3, with “aged” for “aged ≧18”
At the initial visit (screening visit), the patients' clinical status, social situation, and alcohol consumption pattern were evaluated. After a 1- to 2-week observation period the drinking risk level was re-assessed by calculating mean daily alcohol consumption in g/day over the 1- to 2-week observation period, and treatment with nalmefene was initiated together with counseling with focus on motivating the patients to adhere to the treatment and to change their drinking behavior.
The efficacy of nalmefene was measured using two co-primary endpoints: the change in the monthly number of heavy drinking days (HDDs) and the change in the mean daily total alcohol consumption (TAC) per month (=28 days).
The efficacy of nalmefene on the reduction of alcohol consumption in patients with alcohol dependence (DSM-IV) was evaluated in two efficacy studies (Study 12014A and Study 12023A). […] The efficacy of nalmefene was also evaluated in a randomised, double blind, two parallel group, placebo controlled 1 year safety study (Study 12013A). […]
as §3, with “The timeline followback (TLFB) method was used to obtain estimates of the patient's daily drinking.” left out
At the initial visit, the patients' clinical status, social situation, and alcohol consumption pattern were evaluated (based on patient reporting). […]

alcohol dependence [6] = conditions: 5, 20 and 40 mg daily doses; Anton et al. 2004; cited from earlier work
alcohol dependence [7] = conditions: 20 mg taken when the patient experienced a craving for alcohol; Karhuvaara et al. 2007; cited from earlier work
[8] = High DRL at baseline & randomisation

C=C1CC[C@@]2(O)[C@H]3Cc4ccc(O)c5c4[C@@]2(CCN3CC2CC2)[C@H]1O5 [nalmefene, 17-(cyclopropylmethyl)-4,5-alpha-epoxy-6-methylenemorphinan-3,14-dial]
Mean difference to placebo in the change from baseline to month 6, HDD [1, 8]: −2.7 days/month
Mean difference to placebo in the change from baseline to month 6, TAC [1, 8]: -10.3 g/day
Mean difference to placebo in the change from baseline to month 6, HDD ([1]; High DRL at baseline): −2.1 days/month
Mean difference to placebo in the change from baseline to month 6, TAC ([1]; High DRL at baseline): -6.6 g/day
Mean difference to placebo in the change from baseline to month 6, HDD ([1]; Total excl. ERs): −2.0 days/month
Mean difference to placebo in the change from baseline to month 6, TAC ([1]; Total excl. ERs): -7.0 g/day
Mean difference to placebo in the change from baseline to month 6, HDD ([1]; Total population): −1.7 days/month
Mean difference to placebo in the change from baseline to month 6, TAC ([1]; Total population): -5.0 g/day
Mean difference to placebo in the change from baseline to month 6, HDD [2, 8]: −3.7 days/month
Mean difference to placebo in the change from baseline to month 6, TAC [2, 8]: -18.3 g/day
Mean difference to placebo in the change from baseline to month 6, HDD ([2]; High DRL at baseline): −2.6 days/month
Mean difference to placebo in the change from baseline to month 6, TAC ([2]; High DRL at baseline): -12.2 g/day
Mean difference to placebo in the change from baseline to month 6, HDD ([2]; Total excl. ERs): −3.1 days/month
Mean difference to placebo in the change from baseline to month 6, TAC ([2]; Total excl. ERs): -14.5 g/day
Mean difference to placebo in the change from baseline to month 6, HDD ([2]; Total population): −2.3 days/month
Mean difference to placebo in the change from baseline to month 6, TAC ([2]; Total population): -11.0 g/day
Effect in the management of alcohol dependence (alcohol dependence [3]): good effect
Mean difference to placebo in the change from baseline to month 6, HDD [4, 8]: −2.6 days/month
Mean difference to placebo in the change from baseline to month 6, TAC [4, 8]: -15.3 g/day
Mean difference to placebo in the change from baseline to month 6, HDD ([4]; High DRL at baseline): −1.1 days/month
Mean difference to placebo in the change from baseline to month 6, TAC ([4]; High DRL at baseline): -5.6 g/day
Mean difference to placebo in the change from baseline to month 6, HDD ([4]; Total excl. ERs): −1.4 days/month
Mean difference to placebo in the change from baseline to month 6, TAC ([4]; Total excl. ERs): -7.9 g/day
Mean difference to placebo in the change from baseline to month 6, HDD ([4]; Total population): −0.9 days/month
Mean difference to placebo in the change from baseline to month 6, TAC ([4]; Total population): -3.5 g/day
Reducing the number of HDDs and TAC versus placebo ([5]; month 6, total study population, two 6 month efficacy studies and 12 month safety study): superior to placebo
Effect on HDDs and TAC compared to placebo, relative to the total population ([5]; patients that were not ERs (total excluding Early Reducers)): more pronounced
Effect on HDDs and TAC compared to placebo, relative to the total population ([5]; patients with a high DRL at baseline): more pronounced
Effect on HDDs and TAC compared to placebo, relative to the total population ([5]; patients with a high DRL both at baseline and at randomisation): more pronounced; also recorded: even further pronounced
Superiority over placebo in the management of alcohol dependence (alcohol dependence [6]): no evidence of superiority of nalmefene over placebo
Effect over placebo in the management of alcohol dependence (alcohol dependence [7]): good effect of nalmefene over placebo
